What was measured:
[1] = Dynamic Vapor Sorption (moisture sorption); format: physicochemical; details: 95% RH, room temperature
Procedure: Dynamic Vapor Sorption (DVS): Hygroscopicity was determined on a Surface Measurement Systems DVS. Typically, a sample of about 2-10 mg was loaded into the DVS instrument sample pan. The sample was analyzed on a DVS automated sorption analyzer at room temperature. The relative humidity was increased from 0 to 95% RH at 10% RH step, then at 95% RH. The relative humidity was then decreased in a similar manner to accomplish a full adsorption/desorption cycle.

[2] = Grinding studies, solid form by XRPD; format: physicochemical
Procedure: Grinding Studies: Grinding experiments were performed using a Wig-L-Bug shaker. About 50 mg of Compound A hydrochloride was added to a polystyrene tube (1″×½″) with a Plexi bead (⅜″). The vial was capped and placed on the shaker for about 50 s. For wet grinding, drops of water were added to the vial and a wet paste was formed prior to placing on the shaker.
X-ray Powder Diffraction (XRPD): XRPD analysis was conducted on a Thermo ARL X'TRA™ X-ray powder diffractometer using Cu Kα radiation at 1.54 Å. The instrument was equipped with a fine focus X-ray tube. The voltage and amperage of X-ray generator were set at 45 kV and 40 mA, respectively. The divergence slices were set at 4 mm and 2 mm and the measuring slices were set at 0.5 mm and 0.2 mm. Diffracted radiation was detected by a peltier-cooled Si(Li) solid-state detector. A theta-two theta continuous scan at 2.40°/min (0.5 sec/0.02° step) from 1.5°2θ to 40°2θ was used. A sintered alumina standard was used to check the peak position. In general, positions of XRPD peaks are expected to individually vary on a measurement-by-measurement basis by about +0.2°2θ. In general, as understood in the art, two XRPD patterns match one another if the characteristic peaks of the first pattern are located at approximately the same positions as the characteristic peaks of the second pattern. As understood in the art, determining whether two XRPD patterns match or whether individual peaks in two XRPD patterns match may require consideration of individual variables and parameters such as, but not limited to, preferred orientation, phase impurities, degree of crystallinity, particle size, variation in diffractometer instrument setup, variation in XRPD data collection parameters, and/or variation in XRPD data processing, among others. The determination of whether two patterns match may be performed by eye and/or by computer analysis.

## Cc1nc2cccc(N)c2c(=O)n1C1CCC(=O)NC1=O (stereo not shown) [Compound A, 3-(5-amino-2-methyl-4-oxo-4H-quinazolin-3-yl)-piperidine-2,6-dione]
[1]
  Moisture Sorption at 95% RH: 3.19 wt %

## Cc1nc2cccc(N)c2c(=O)n1C1CCC(=O)NC1=O (stereo not shown) [Form A, 3-(5-amino-2-methyl-4-oxo-4H-quinazolin-3-yl)-piperidine-2,6-dione]
[2]; Dry grinding
  XRPD Result after grinding: Form A1
[2]; Wet grinding (paste)
  XRPD Result after grinding: Form A1

## Cc1nc2cccc(N)c2c(=O)n1C1CCC(=O)NC1=O (stereo not shown) [Form B, 3-(5-amino-2-methyl-4-oxo-4H-quinazolin-3-yl)-piperidine-2,6-dione]
[1]; listed as B
  Moisture Sorption at 95% RH: 0.11 wt %

## Cc1nc2cccc(N)c2c(=O)n1C1CCC(=O)NC1=O (stereo not shown) [Form C, 3-(5-amino-2-methyl-4-oxo-4H-quinazolin-3-yl)-piperidine-2,6-dione]
[1]; listed as C
  Moisture Sorption at 95% RH: 0.17 wt %

## Cc1nc2cccc(N)c2c(=O)n1C1CCC(=O)NC1=O (stereo not shown) [Form D, 3-(5-amino-2-methyl-4-oxo-4H-quinazolin-3-yl)-piperidine-2,6-dione]
[1]; listed as D
  Moisture Sorption at 95% RH: 4.11 wt %

## Cc1nc2cccc(N)c2c(=O)n1C1CCC(=O)NC1=O (stereo not shown) [Form E, 3-(5-amino-2-methyl-4-oxo-4H-quinazolin-3-yl)-piperidine-2,6-dione]
[1]; listed as E
  Moisture Sorption at 95% RH: 0.26 wt %

— US9751853B2, “Solid forms of 3-(5-amino-2-methyl-4-oxo-4H-quinazolin-3-yl)-piperidine-2,6-dione, and their pharmaceutical compositions and uses” (Celgene Corporation, priority 2011, dated 2017)
